According to paper PMC9621292, “Design and synthesis of some new benzoylthioureido benzenesulfonamide derivatives and their analogues as carbonic anhydrase inhibitors” (Journal of Enzyme Inhibition and Medicinal Chemistry, 2022):

Molecular target: hCA II (Homo sapiens, UniProt P00918)
Assay: Stopped flow CO2 hydrase assay, hCA II
Conditions: not given

Ki	Compound
0.0566 µM	Cc1ccc(C(=O)Nc2cccc(C(=O)NC(=S)Nc3ccc(S(N)(=O)=O)cc3)c2)cc1 [Compound 7c, 3-(4-Methylbenzamido)-N-((4-sulfamoylphenyl)carbamothioyl)benzamide]
0.701 µM	CC(=O)Nc1ccc(C(=O)NC(=S)Nc2ccc(S(N)(=O)=O)cc2)cc1 [Compound 7d, 4-Acetamido-N-((4-sulfamoylphenyl)carbamothioyl)benzamide]
> 100 µM	CCOC(=O)c1ccc(NC(=S)NC(=O)c2ccc(NC(C)=O)cc2)cc1 [Compound 9d, Ethyl 4–(3-(4-acetamidobenzoyl)thioureido)benzoate]
0.0571 µM	CCOC(=O)c1ccc(NC(=S)NC(=O)c2cccc(NC(=O)C(C)C)c2)cc1 [Compound 9b, Ethyl 4–(3-(3-isobutyramidobenzoyl)thioureido)benzoate]
0.039 µM	Cc1ccc(C(=O)Nc2ccc(C(=O)NC(=S)Nc3ccc(S(N)(=O)=O)cc3)cc2)cc1 [Compound 7f, 4-Methyl-N-(4(((4sulfamoylphenyl)carbamothioyl)carbamoyl)phenyl) benzamide]
> 100 µM	CCOC(=O)c1ccc(NC(=S)NC(=O)c2cccc(NC(C)=O)c2)cc1 [Compound 9a, Ethyl 4–(3-(3-acetamidobenzoyl)thioureido)benzoate]
> 100 µM	CCOC(=O)c1ccc(NC(=S)NC(=O)c2ccc(NC(=O)c3ccc(C)cc3)cc2)cc1 [Compound 9f, Ethyl 4–(3-(4–(4-methylbenzamido)benzoyl)thioureido)benzoate]
0.546 µM	CCOC(=O)c1ccc(NC(=S)NC(=O)c2cccc(NC(=O)c3ccc(C)cc3)c2)cc1 [Compound 9c, Ethyl 4–(3-(3–(4-methylbenzamido)benzoyl)thioureido)benzoate]
0.295 µM	Cc1ccc(C(=O)Nc2cccc(C(=O)NC(=S)Nc3ccc(C(=O)O)cc3)c2)cc1 [Compound 8c, 4-(3-(3-(4-Methylbenzamido)benzoyl)thioureido)benzoic acid]

Test system: not given
Assay: not given
Conditions: not given

melting point	Compound
210 to 212 °C	Cc1ccc(C(=O)Nc2cccc(C(=O)NC(=S)Nc3ccc(S(N)(=O)=O)cc3)c2)cc1 [Compound 7c, 3-(4-Methylbenzamido)-N-((4-sulfamoylphenyl)carbamothioyl)benzamide]
218 to 220 °C	CC(=O)Nc1ccc(C(=O)NC(=S)Nc2ccc(S(N)(=O)=O)cc2)cc1 [Compound 7d, 4-Acetamido-N-((4-sulfamoylphenyl)carbamothioyl)benzamide]
237 to 239 °C	CCOC(=O)c1ccc(NC(=S)NC(=O)c2ccc(NC(C)=O)cc2)cc1 [Compound 9d, Ethyl 4–(3-(4-acetamidobenzoyl)thioureido)benzoate]
245 to 247 °C	CCOC(=O)c1ccc(NC(=S)NC(=O)c2cccc(NC(=O)C(C)C)c2)cc1 [Compound 9b, Ethyl 4–(3-(3-isobutyramidobenzoyl)thioureido)benzoate]
228 to 230 °C	Cc1ccc(C(=O)Nc2ccc(C(=O)NC(=S)Nc3ccc(S(N)(=O)=O)cc3)cc2)cc1 [Compound 7f, 4-Methyl-N-(4(((4sulfamoylphenyl)carbamothioyl)carbamoyl)phenyl) benzamide]
242 to 244 °C	CCOC(=O)c1ccc(NC(=S)NC(=O)c2cccc(NC(C)=O)c2)cc1 [Compound 9a, Ethyl 4–(3-(3-acetamidobenzoyl)thioureido)benzoate]
237 to 239 °C	CCOC(=O)c1ccc(NC(=S)NC(=O)c2ccc(NC(=O)c3ccc(C)cc3)cc2)cc1 [Compound 9f, Ethyl 4–(3-(4–(4-methylbenzamido)benzoyl)thioureido)benzoate]
236 to 238 °C	CCOC(=O)c1ccc(NC(=S)NC(=O)c2cccc(NC(=O)c3ccc(C)cc3)c2)cc1 [Compound 9c, Ethyl 4–(3-(3–(4-methylbenzamido)benzoyl)thioureido)benzoate]
254 to 256 °C	Cc1ccc(C(=O)Nc2cccc(C(=O)NC(=S)Nc3ccc(C(=O)O)cc3)c2)cc1 [Compound 8c, 4-(3-(3-(4-Methylbenzamido)benzoyl)thioureido)benzoic acid]

Molecular target: hCA IX (Homo sapiens, UniProt Q16790)
Assay: Stopped flow CO2 hydrase assay, hCA IX
Conditions: not given

Ki	Compound
0.0312 µM	Cc1ccc(C(=O)Nc2cccc(C(=O)NC(=S)Nc3ccc(S(N)(=O)=O)cc3)c2)cc1 [Compound 7c, 3-(4-Methylbenzamido)-N-((4-sulfamoylphenyl)carbamothioyl)benzamide]
0.168 µM	CC(=O)Nc1ccc(C(=O)NC(=S)Nc2ccc(S(N)(=O)=O)cc2)cc1 [Compound 7d, 4-Acetamido-N-((4-sulfamoylphenyl)carbamothioyl)benzamide]
1.63 µM	CCOC(=O)c1ccc(NC(=S)NC(=O)c2ccc(NC(C)=O)cc2)cc1 [Compound 9d, Ethyl 4–(3-(4-acetamidobenzoyl)thioureido)benzoate]
0.3 µM	CCOC(=O)c1ccc(NC(=S)NC(=O)c2cccc(NC(=O)C(C)C)c2)cc1 [Compound 9b, Ethyl 4–(3-(3-isobutyramidobenzoyl)thioureido)benzoate]
0.03 µM	Cc1ccc(C(=O)Nc2ccc(C(=O)NC(=S)Nc3ccc(S(N)(=O)=O)cc3)cc2)cc1 [Compound 7f, 4-Methyl-N-(4(((4sulfamoylphenyl)carbamothioyl)carbamoyl)phenyl) benzamide]
2.13 µM	CCOC(=O)c1ccc(NC(=S)NC(=O)c2cccc(NC(C)=O)c2)cc1 [Compound 9a, Ethyl 4–(3-(3-acetamidobenzoyl)thioureido)benzoate]
1.58 µM	CCOC(=O)c1ccc(NC(=S)NC(=O)c2ccc(NC(=O)c3ccc(C)cc3)cc2)cc1 [Compound 9f, Ethyl 4–(3-(4–(4-methylbenzamido)benzoyl)thioureido)benzoate]
0.251 µM	CCOC(=O)c1ccc(NC(=S)NC(=O)c2cccc(NC(=O)c3ccc(C)cc3)c2)cc1 [Compound 9c, Ethyl 4–(3-(3–(4-methylbenzamido)benzoyl)thioureido)benzoate]
0.264 µM	Cc1ccc(C(=O)Nc2cccc(C(=O)NC(=S)Nc3ccc(C(=O)O)cc3)c2)cc1 [Compound 8c, 4-(3-(3-(4-Methylbenzamido)benzoyl)thioureido)benzoic acid]

Same assay, conditions: inhibition of hCA IX over hCA I, calculated from Ki

Selectivity index I/IX	Compound
1.0	Cc1ccc(C(=O)Nc2cccc(C(=O)NC(=S)Nc3ccc(S(N)(=O)=O)cc3)c2)cc1 [Compound 7c, 3-(4-Methylbenzamido)-N-((4-sulfamoylphenyl)carbamothioyl)benzamide]
1.4	Cc1ccc(C(=O)Nc2ccc(C(=O)NC(=S)Nc3ccc(S(N)(=O)=O)cc3)cc2)cc1 [Compound 7f, 4-Methyl-N-(4(((4sulfamoylphenyl)carbamothioyl)carbamoyl)phenyl) benzamide]

Same assay, conditions: inhibition of hCA IX over hCA II, calculated from Ki

Selectivity index II/IX	Compound
2.0	Cc1ccc(C(=O)Nc2cccc(C(=O)NC(=S)Nc3ccc(S(N)(=O)=O)cc3)c2)cc1 [Compound 7c, 3-(4-Methylbenzamido)-N-((4-sulfamoylphenyl)carbamothioyl)benzamide]
1.3	Cc1ccc(C(=O)Nc2ccc(C(=O)NC(=S)Nc3ccc(S(N)(=O)=O)cc3)cc2)cc1 [Compound 7f, 4-Methyl-N-(4(((4sulfamoylphenyl)carbamothioyl)carbamoyl)phenyl) benzamide]

Molecular target: hCA I (Homo sapiens, UniProt P00915)
Assay: Stopped flow CO2 hydrase assay, hCA I
Conditions: not given

hCA I, sequence (P00915 whole entry): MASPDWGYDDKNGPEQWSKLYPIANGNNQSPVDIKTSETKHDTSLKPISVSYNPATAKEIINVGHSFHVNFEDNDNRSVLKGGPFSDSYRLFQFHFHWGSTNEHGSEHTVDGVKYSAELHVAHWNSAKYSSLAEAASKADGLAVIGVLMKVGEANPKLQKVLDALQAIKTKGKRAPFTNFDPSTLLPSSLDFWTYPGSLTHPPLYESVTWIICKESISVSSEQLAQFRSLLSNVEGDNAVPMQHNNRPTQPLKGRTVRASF

Ki	Compound
0.033 µM	Cc1ccc(C(=O)Nc2cccc(C(=O)NC(=S)Nc3ccc(S(N)(=O)=O)cc3)c2)cc1 [Compound 7c, 3-(4-Methylbenzamido)-N-((4-sulfamoylphenyl)carbamothioyl)benzamide]
5.45 µM	CC(=O)Nc1ccc(C(=O)NC(=S)Nc2ccc(S(N)(=O)=O)cc2)cc1 [Compound 7d, 4-Acetamido-N-((4-sulfamoylphenyl)carbamothioyl)benzamide]
> 100 µM	CCOC(=O)c1ccc(NC(=S)NC(=O)c2ccc(NC(C)=O)cc2)cc1 [Compound 9d, Ethyl 4–(3-(4-acetamidobenzoyl)thioureido)benzoate]
8.66 µM	CCOC(=O)c1ccc(NC(=S)NC(=O)c2cccc(NC(=O)C(C)C)c2)cc1 [Compound 9b, Ethyl 4–(3-(3-isobutyramidobenzoyl)thioureido)benzoate]
0.043 µM	Cc1ccc(C(=O)Nc2ccc(C(=O)NC(=S)Nc3ccc(S(N)(=O)=O)cc3)cc2)cc1 [Compound 7f, 4-Methyl-N-(4(((4sulfamoylphenyl)carbamothioyl)carbamoyl)phenyl) benzamide]
9.04 µM	CCOC(=O)c1ccc(NC(=S)NC(=O)c2cccc(NC(C)=O)c2)cc1 [Compound 9a, Ethyl 4–(3-(3-acetamidobenzoyl)thioureido)benzoate]
> 100 µM	CCOC(=O)c1ccc(NC(=S)NC(=O)c2ccc(NC(=O)c3ccc(C)cc3)cc2)cc1 [Compound 9f, Ethyl 4–(3-(4–(4-methylbenzamido)benzoyl)thioureido)benzoate]
> 100 µM	CCOC(=O)c1ccc(NC(=S)NC(=O)c2cccc(NC(=O)c3ccc(C)cc3)c2)cc1 [Compound 9c, Ethyl 4–(3-(3–(4-methylbenzamido)benzoyl)thioureido)benzoate]
9.17 µM	Cc1ccc(C(=O)Nc2cccc(C(=O)NC(=S)Nc3ccc(C(=O)O)cc3)c2)cc1 [Compound 8c, 4-(3-(3-(4-Methylbenzamido)benzoyl)thioureido)benzoic acid]

Molecular target: hCA XII (Homo sapiens, UniProt O43570)
Assay: Stopped flow CO2 hydrase assay, hCA XII
Conditions: not given

hCA XII, sequence (O43570 25-354): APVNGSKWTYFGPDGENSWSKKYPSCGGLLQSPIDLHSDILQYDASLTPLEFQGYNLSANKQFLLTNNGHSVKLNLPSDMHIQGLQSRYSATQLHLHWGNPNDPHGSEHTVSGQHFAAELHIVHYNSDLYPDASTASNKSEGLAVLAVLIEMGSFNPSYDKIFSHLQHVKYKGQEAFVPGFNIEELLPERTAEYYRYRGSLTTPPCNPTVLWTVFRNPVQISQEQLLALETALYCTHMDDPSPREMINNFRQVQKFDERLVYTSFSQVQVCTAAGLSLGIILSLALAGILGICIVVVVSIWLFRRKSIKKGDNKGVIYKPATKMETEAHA

Ki	Compound
> 100 µM	Cc1ccc(C(=O)Nc2cccc(C(=O)NC(=S)Nc3ccc(S(N)(=O)=O)cc3)c2)cc1 [Compound 7c, 3-(4-Methylbenzamido)-N-((4-sulfamoylphenyl)carbamothioyl)benzamide]
0.097 µM	CC(=O)Nc1ccc(C(=O)NC(=S)Nc2ccc(S(N)(=O)=O)cc2)cc1 [Compound 7d, 4-Acetamido-N-((4-sulfamoylphenyl)carbamothioyl)benzamide]
> 100 µM	CCOC(=O)c1ccc(NC(=S)NC(=O)c2ccc(NC(C)=O)cc2)cc1 [Compound 9d, Ethyl 4–(3-(4-acetamidobenzoyl)thioureido)benzoate]
> 100 µM	CCOC(=O)c1ccc(NC(=S)NC(=O)c2cccc(NC(=O)C(C)C)c2)cc1 [Compound 9b, Ethyl 4–(3-(3-isobutyramidobenzoyl)thioureido)benzoate]
0.106 µM	Cc1ccc(C(=O)Nc2ccc(C(=O)NC(=S)Nc3ccc(S(N)(=O)=O)cc3)cc2)cc1 [Compound 7f, 4-Methyl-N-(4(((4sulfamoylphenyl)carbamothioyl)carbamoyl)phenyl) benzamide]
> 100 µM	CCOC(=O)c1ccc(NC(=S)NC(=O)c2cccc(NC(C)=O)c2)cc1 [Compound 9a, Ethyl 4–(3-(3-acetamidobenzoyl)thioureido)benzoate]
0.155 µM	CCOC(=O)c1ccc(NC(=S)NC(=O)c2ccc(NC(=O)c3ccc(C)cc3)cc2)cc1 [Compound 9f, Ethyl 4–(3-(4–(4-methylbenzamido)benzoyl)thioureido)benzoate]
> 100 µM	CCOC(=O)c1ccc(NC(=S)NC(=O)c2cccc(NC(=O)c3ccc(C)cc3)c2)cc1 [Compound 9c, Ethyl 4–(3-(3–(4-methylbenzamido)benzoyl)thioureido)benzoate]
0.145 µM	Cc1ccc(C(=O)Nc2cccc(C(=O)NC(=S)Nc3ccc(C(=O)O)cc3)c2)cc1 [Compound 8c, 4-(3-(3-(4-Methylbenzamido)benzoyl)thioureido)benzoic acid]
